Results taken from patent US7091346B1, “Purine derivatives and processes for their preparation” (Novartis AG, priority 1995, dated 2006).
Several values for one entry are separate records, joined by “and”; a condition that tells them apart may be missing. Equal entries are not always repeated. Structures can show the parent of a compound that is named as a salt.

Row | SMILES | melting point
1 | CC[C@@H](CO)Nc1nc(Nc2cccc(Cl)c2)c2ncn(CC)c2n1 [Example 83, 6-(3-chloro-phenyl-amino)-9-ethyl-2-[(S)-1-hydroxy-but-2-yl-amino]-9H-purine] | 203 °C
2 | CCn1cnc2c(Nc3cccc(Cl)c3)nc(N3CCC(CCN)CC3)nc21 [Example 18, 2-[4-(2-amino-ethyl)-piperidin-1-yl]-6-(3-chloro-phenyl-amino)-9-ethyl-9H-purine] | 182 to 184 °C
3 | CCn1cnc2c(Nc3cccc(Cl)c3)nc(NCC(C)N)nc21 (stereo not shown) [Example 47, 2-(2-amino-propyl-amino)-6-(3-chloro-phenyl-amino)-9-ethyl-9H-purine] | 119 to 120 °C
4 | CCn1cnc2c(Nc3cccc(Cl)c3)nc(NCCc3ccccc3)nc21 [Example 11, 2-(2-phenyl-ethyl-amino)-6-(3-chloro-phenyl-amino)-9-ethyl-9H-purine] | 151 to 152 °C
5 | CCn1cnc2c(Nc3cccc(C(=O)NCCCO)c3C)nc(NCCCO)nc21 [Example 25, 9-ethyl-2-(3-hydroxy-propyl-amino)-6-[3-[(3-hydroxy-propyl)-aminocarbonyl]-2-methyl-phenyl-amino]-9H-purine] | 138 to 142 °C
6 | CCn1cnc2c(Nc3cccc(Cl)c3)nc(N3CCC4(CC3)OCCO4)nc21 [Example 54, 6-(3-chloro-phenyl-amino)-2-(1,4-dioxa-8-azaspiro[4.5]dec-8-yl)-9-ethyl-9H-purine] | 159 to 161 °C
7 | CCn1cnc2c(Nc3cccc(Cl)c3)nc(N3CCCCC3)nc21 [Example 82, 6-(3-chloro-phenyl-amino)-9-ethyl-2-piperidino-9H-purine] | 126 °C
8 | CCn1cnc2c(Nc3cccc(C#N)c3)nc(NCCN)nc21.Cl | 200 °C
9 | CC(C)n1cnc2c(Nc3cccc(Cl)c3)nc(NCCN)nc21 (as salt: ammonium) [Example 4, 2-(2-Amino-ethylamino)-6-(3-chloro-phenyl-amino)-9-isopropyl-9H-purine] | 55 to 56 °C
10 | CCn1cnc2c(Nc3cccc(Cl)c3)nc(N(CCO)C3CCCCC3)nc21 [Example 62, 6-(3-chloro-phenyl-amino)-2-[N-cyclohexyl-N-(2-hydroxy-ethyl)-amino]-9-ethyl-9H-purine] | 125 to 128 °C
11 | CC(C)n1cnc2c(Nc3ccc(F)cc3)nc(NCCO)nc21 [Example 96, 6-(4-fluoro-phenyl-amino)-2-(2-hydroxy-ethyl-amino)-9-isopropyl-9H-purine] | 139 °C
12 | CCn1cnc2c(Nc3cccc(Cl)c3)nc(N3CCNCC3)nc21 [Example 23, 6-(3-chloro-phenylamino)-9-ethyl-2-piperazino-9H-purine] | 181.5 to 182.5 °C
13 | CCn1cnc2c(Nc3cccc(Cl)c3)nc(NC[C@H](C)O)nc21 [Example 89, 6-(3-chloro-phenyl-amino)-9-ethyl-2-[(S)-2-hydroxy-propylamino]-9H-purine] | 161 °C
14 | CCn1cnc2c(Nc3cccc(Cl)c3)nc(NCc3ccccc3)nc21 [Example 10, 2-benzylamino-6-(3-chloro-phenyl-amino)-9-ethyl-9H-purine] | 88 to 90 °C
15 | CCn1cnc2c(Nc3cccc(Cl)c3)nc(NC3CCCCC3)nc21 [Example 85, 6-(3-chloro-phenyl-amino)-2-cyclohexylamino-9-ethyl-9H-purine] | 143 °C
16 | CCn1cnc2c(Nc3cccc(Cl)c3)nc(NCCCOC)nc21 [Example 12, 2-(3-methoxy-propyl-amino)-6-(3-chloro-phenyl-amino)-9-ethyl-9H-purine] | 93 to 94 °C
17 | CCn1cnc2c(Nc3cccc(Cl)c3)nc(NC[C@@H](C)O)nc21 [Example 88, 6-(3-chloro-phenyl-amino)-9-ethyl-2-[(R)-2-hydroxy-propylamino]-9H-purine] | 161 °C
18 | COc1cccc(Nc2nc(NCCCO)nc3c2ncn3CCO)c1 [Example 28, 9-(2-hydroxy-ethyl)-2-(3-hydroxy-propyl-amino)-6-(3-methoxy-phenyl-amino)-9H-purine] | 132 to 133 °C
19 | CCn1cnc2c(Nc3ccc(Cl)c(C(F)(F)F)c3)nc(NCCO)nc21 [Example 106, 6-(4-chloro-3-trifluoromethyl-phenyl-amino)-9-ethyl-2-(2-hydroxy-ethyl-amino)-9H-purine] | 194 °C
20 | CCn1cnc2c(Nc3cccc(Cl)c3)nc(N(C)C(N)=O)nc21 [Example 53, 2-[carbamoyl-methyl-amino]-6-(3-chloro-phenyl-amino)-9-ethyl-9H-purine] | > 220 °C
21 | CCn1cnc2c(Nc3cccc(Cl)c3)nc(NCC3CCCO3)nc21 (stereo not shown) [Example 15, 2-(tetrahydrofurfuryl-amino)-6-(3-chloro-phenyl-amino)-9-ethyl-9H-purine] | 84 to 86 °C
22 | CCn1cnc2c(Nc3cccc(Cl)c3)nc(N(CCO)CCO)nc21 [Example 2, 6-(3-chloro-phenylamino)-2-(di-[2-hydroxy-ethyl]-amino)-9-ethyl-9H-purine] | 148 to 149 °C
23 | CCn1cnc2c(Nc3ccc(N)cc3)nc(NCCO)nc21 [Example 108, 6-(4-amino-phenyl-amino)-9-ethyl-2-(2-hydroxy-ethyl-amino)-9H-purine] | 210 °C
24 | CC[C@H](CO)Nc1nc(Nc2cccc(Cl)c2)c2ncn(CC)c2n1 [Example 84, 6-(3-chloro-phenyl-amino)-9-ethyl-2-[(R)-1-hydroxy-but-2-yl-amino)-9H-purine] | 200 °C

Further lines, results first:

Row | melting point | SMILES
25 | 116.5 °C | CCn1cnc2c(Nc3cccc(Cl)c3)nc(N[C@H]3CC[C@H](O)CC3)nc21 [Example 65, 6-(3-chloro-phenyl-amino)-9-ethyl-2-(trans-4-hydroxy-cyclohexyl-amino)-9H-purine]
26 | 183 °C | CCn1cnc2c(Nc3cccc(Cl)c3)nc(N3C(C)CNCC3C)nc21 (stereo not shown) [Example 74, 6-(3-chloro-phenylamino)-2-[(2,6-dimethyl)-piperazino]-9-ethyl-9H-purine]
27 | 191 to 192 °C | CCn1cnc2c(Nc3ccc(C(F)(F)F)cc3)nc(NCCO)nc21 [Example 104, 9-Ethyl-2-(2-hydroxy-ethyl-amino)-6-(4-trifluoromethyl-phenyl-amino)-9H-purine]
28 | 152 °C | CCn1cnc2c(Nc3ccc(F)cc3)nc(NCCO)nc21 [Example 99, 9-ethyl-6-(4-fluoro-phenyl-amino)-2-(2-hydroxy-ethyl-amino)-9H-purine]
29 | 198.7 °C | CCn1cnc2c(Nc3cccc(Cl)c3)nc(N3CCC(O)CC3)nc21 [Example 72, 6-(3-chloro-phenyl-amino)-9-ethyl-2-(4-hydroxy-piperidino)-9H-purine]
30 | 181 °C | COc1cccc(Nc2nc(NCCN)nc3c2ncn3C(C)C)c1 [Example 101, 2-(2-amino-ethyl-amino)-9-isopropyl-6-(3-methoxy-phenyl-amino)-9H-purine]
31 | 143 to 145 °C | CCn1cnc2c(Nc3cccc(Cl)c3)nc(N(C)C3(O)CCCCC3)nc21 [Example 22, 6-(3-chloro-phenyl-amino)-2-([1-hydroxy-cyclohex-1-yl]-methylamino)-9-ethyl-9H-purine]
32 | > 250 °C | CC(C)n1cnc2c(Nc3ccc(F)cc3)nc(NCCN)nc21.Cl
33 | 250 °C | COc1cccc(Nc2nc(NN)nc3c2ncn3C(C)C)c1.Cl
34 | 205 °C | CCn1cnc2c(Nc3cccc(Cl)c3)nc(Nc3cccc(N)c3)nc21 [Example 42, 2-[3-amino-phenylamino]-6-(3-chloro-phenyl-amino)-9-ethyl-9H-purine]
35 | 106 to 108 °C | CCn1cnc2c(Nc3cccc(Cl)c3)nc(NCCc3c[nH]c4ccccc34)nc21 [Example 20, 2-[2-(3-indolyl)-ethyl-amino]-6-(3-chloro-phenyl-amino)-9-ethyl-9H-purine]
36 | 184 °C | CCn1cnc2c(Nc3cccc(F)c3)nc(NCCO)nc21 [Example 92, 2-(2-hydroxy-ethyl-amino)-6-(3-fluoro-phenyl-amino)-9-ethyl-9H-purine]
37 | 202 °C | CCn1cnc2c(Nc3cc(C(F)(F)F)cc(C(F)(F)F)c3)nc(NCCO)nc21 [Example 105, 9-ethyl-2-(2-hydroxy-ethyl-amino)-6-(3,5-di-trifluoromethyl-phenyl-amino)-9H-purine]
38 | 196 °C | CCn1cnc2c(Nc3cccc(Cl)c3)nc(NCC(C)(C)N)nc21.Cl
39 | 136 °C and 136 to 137 °C | CCn1cnc2c(Nc3cccc(C(F)(F)F)c3)nc(NCCCO)nc21 [Example 24, 9-Ethyl-2-(3-hydroxy-propyl-amino)-6-(3-trifluoromethyl-phenyl-amino)-9H-purine]
40 | > 250 °C | CC(C)n1cnc2c(Nc3cccc(F)c3)nc(NCCN)nc21 [Example 91, 2-(2-Amino-ethyl-amino)-6-(3-fluoro-phenyl-amino)-9-isopropyl-9H-purine]
41 | 166 to 167 °C | COc1cc(Nc2nc(NCCCO)nc3c2ncn3C)cc(OC)c1OC [Example 30, 2-(3-hydroxy-propyl-amino)-6-(3,4,5-trimethoxy-phenyl-amino)-9-methyl-9H-purine]
42 | 169 °C | CCn1cnc2c(Nc3cccc(Cl)c3)nc(N3CCC[C@H]3CO)nc21 [Example 40, 6-(3-chloro-phenyl-amino)-9-ethyl-2-[(S)-2-hydroxymethyl-pyrrolidin-1-yl]-9H-purine]
43 | > 240 °C | CCn1cnc2c(Nc3cccc(Cl)c3)nc(N3CCC[C@H]3C(N)=O)nc21 [Example 64, 2-[(S)-2-carbamoyl-pyrrolidin-1-yl]-6-(3-chloro-phenyl-amino)-9-ethyl-9H-purine]
44 | 165 °C | CCn1cnc2c(Nc3cccc(Cl)c3)nc(N3CCCC(N)C3)nc21 (stereo not shown) [Example 66, 2-(3-amino-piperidin-1-yl)-6-(3-chloro-phenyl-amino)-9-ethyl-9H-purine]
45 | 148 °C | CCn1cnc2c(Nc3ccc(NC(=O)OCc4ccccc4)cc3)nc(NCCO)nc21 [Example 107, 6-(4-benzyloxycarbonylamino-phenyl-amino)-9-ethyl-2-(2-hydroxy-ethyl-amino)-9H-purine]
46 | 152 to 153 °C | CCn1cnc2c(Nc3cccc(Cl)c3)nc(NCCc3ccccn3)nc21 [Example 16, 2-[2-(2-pyridyl)-ethyl-amino]-6-(3-chloro-phenyl-amino)-9-ethyl-9H-purine]
